Source: patent publication US20200231638A1, “STABILIZED ANTI-MICROBIAL PEPTIDES” (priority 2015, published 2020)
Values after ≈ are worked out from the molar mass of the structure shown. Bridge positions count the residues as written; N and C are the ends. Square brackets hold non-standard residues; d marks the D form. Peptide text beside a SMILES is read from it. R8 = C=CCCCCCC[C@@](C)(N)C(=O)O; S5 = C=CCCC[C@](C)(N)C(=O)O

How the values were obtained:
E. coli = type: cell-based, Escherichia coli
Outline: (§1)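 Microdilution MIC test in polyanion-depleted MHB, with a final inoculum of 5×10^5 CFU/ml and 20-24 h incubation at 37° C.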

S. marcescens = type: cell-based
Protocol: Antimicrobial Activity Assay:
The following microbroth dilution protocol was adapted to determine the minimum inhibitory concentration (MIC) of each peptide. First, Mueller-Hinton broth (MHB) was passed through an anion exchange column to remove polyanionic species and generate refined MHB. […] Briefly, bacterial cells was grown overnight in refined MHB at 37° C. and then diluted and allowed to grow again for several hours. Serial dilutions of peptide stocks in water (10 μl) were prepared using clear round-bottom polypropylene 96-well plates. Then 90 μl of bacteria in refined MHB was added to give a final inoculum of 5×10^5 CFU/ml. The plates were then covered with porous tape to reduce evaporation, and incubated for 20-24 hours at 37° C. The MIC is the minimum peptide concentration at which no visible growth was observed.

P. aeruginosa = type: cell-based, Pseudomonas aeruginosa
Outline: as §1

B. cereus = type: cell-based, Bacillus cereus
Outline: as §1

S. aureus = type: cell-based, Staphylococcus aureus
Outline: as §1

[1] = Circular dichroism spectroscopy (α-helicity); type: physicochemical; settings: TFE 50% v/v
Protocol: To determine the helicity of the panel of stapled magainin II analogues, the peptides were dissolved in water using CD spectroscopy in the presence and absence of trifluoroethanol (TFE; 50% v/v), a helix-promoting solvent. […] Levels of helicity ranged from approximately 34% for MagStap 2 to 100% for MagStap 1 and 3, as compared to an idealized α-helical peptide. […] When the helicity in the presence of TFE was measured, most of the stapled analogues were 50-60% helical except for MagStap 3, which retained 100% α-helical content.
Circular Dichroism Spectroscopy:
Compounds were dissolved in an aqueous solution (e.g. 5 mM potassium phosphate solution at pH 7, or distilled H2O, to concentrations of 25-50 μM). Circular dichroism (CD) spectra were obtained on a spectropolarimeter (Aviv) using standard measurement parameters (e.g., temperature, 37° C.; wavelength, 190-260 nm; step resolution, 0.5 nm; speed, 20 nm/sec; accumulations, 10; response, 1 sec; bandwidth, 1 nm; path length, 0.1 cm). The α-helical content of each peptide was calculated by dividing the mean residue ellipticity by the reported value for a model helical decapeptide (see, e.g., Yang et al., Meth Enzymol. 130:208 (1986)).

human red blood cells = type: cell-based
Outline: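 Washed human RBCs as 1% (v/v) suspension in phosphate-buffered saline incubated 1 h at 37° C with serially diluted peptides. Hemoglobin release in supernatant measured spectrophotometrically (570 nm), % hemolysis relative to untreated and 1% Triton-X100 controls; MHC defined as concentration giving less than 1% release.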

- MIC E. coli (E. coli): 1.6 µg/mL (≈ 0.637 µM)
- MIC S. marcescens (S. marcescens): >50 µg/mL
- MIC P. aeruginosa (P. aeruginosa): 1.6 µg/mL (≈ 0.637 µM)
- MIC B. cereus (B. cereus): 1.6 µg/mL (≈ 0.637 µM)
- MIC S. aureus (S. aureus): 3.1 µg/mL (≈ 1.23 µM)
- α-helicity by CD in the presence of TFE [1]: around 83%
SMILES: CC[C@H](C)[C@H](NC(=O)CN)C(=O)NCC(=O)N[C@@H](CCCCN)C(=O)N[C@@H](Cc1ccccc1)C(=O)N[C@@H](CC(C)C)C(=O)N[C@@H](CCCCN)C(=O)N[C@@H](CCCCN)C(=O)N[C@@H](C)C(=O)N[C@@H](CCCCN)C(=O)N[C@]1(C)CCCCCCC=CCCC[C@@](C)(C(=O)N[C@H](C(=O)N[C@@H](CC(C)C)C(=O)N[C@@H](CCCCN)C(=O)N[C@@H](CCCCN)C(N)=O)[C@@H](C)CC)NC(=O)[C@H](C(C)C)NC(=O)[C@H](Cc2ccccc2)NC(=O)[C@H](C)NC(=O)[C@H](CCCCN)NC(=O)CNC(=O)[C@H](Cc2ccccc2)NC1=O [PexStap 5] (H-GIGKFLKKAK[R8]FGKAFV[S5]ILKK-NH2; staple 11-18; N-terminus assumed)
- hemolytic activity (in words) (human red blood cells): higher levels of hemolytic activity when compared to PexStap2 and PexStap6
